The values that follow come from US8575186B2, “Epiminocycloalkyl[b] indole derivatives as serotonin sub-type 6 (5-HT6) modulators and uses thereof” (Albany Molecular Research, Inc., priority 2009, dated 2013).

The structures appear in SMILES notation. Where a name gives a salt, the structure may show the parent alone.

For one data set, the target named is human 5-HT6 receptor (Homo sapiens (Human), UniProt P50406). Briefly: radioligand binding assay (SPA format), [N-methyl-3H]-LSD. Conditions: human 5HT6 Ki, human 5-HT6 receptor membranes, 10 nM [3H]-LSD.
human 5-HT6 receptor, sequence (P50406 whole entry): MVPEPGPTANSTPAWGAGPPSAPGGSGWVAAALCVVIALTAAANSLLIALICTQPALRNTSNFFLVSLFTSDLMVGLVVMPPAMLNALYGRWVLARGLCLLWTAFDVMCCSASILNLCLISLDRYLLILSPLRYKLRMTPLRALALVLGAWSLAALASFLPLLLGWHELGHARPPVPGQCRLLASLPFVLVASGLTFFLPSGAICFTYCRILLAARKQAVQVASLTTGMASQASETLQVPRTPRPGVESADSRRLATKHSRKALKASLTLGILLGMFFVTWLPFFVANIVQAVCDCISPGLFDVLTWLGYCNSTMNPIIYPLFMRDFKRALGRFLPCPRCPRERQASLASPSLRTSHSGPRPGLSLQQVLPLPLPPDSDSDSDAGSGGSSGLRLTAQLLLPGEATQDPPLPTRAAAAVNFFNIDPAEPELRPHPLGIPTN
A word on the Ki: it is the dissociation constant of the complex between target and ligand, obtained from inhibition or displacement. In turn, `Cn1c2c(c3cc(S(=O)(=O)n4ccc5ccc(C#N)cc54)ccc31)C1CCC(C2)N1` (stereo not shown) [Example 199] came in with an inhibition constant Ki of 1.8 nM.

The data set is the same for the next values; noted with them: read-out: human 5HT6 Ki; human 5-HT6 receptor membranes, 10 nM [3H]-LSD.
Turning to `COc1cc(S(=O)(=O)c2cccc(-n3cccn3)c2)cc2c3c(n(C)c12)CC1CCC3N1` (stereo not shown) [Example 246], the Ki was 10 nM.
For the compound `COc1cc(S(=O)(=O)c2cccc(F)c2)cc2c3c(n(C)c12)CC1CCC3N1` (stereo not shown) [Example 221], the Ki came out at 3.3 nM.
`Cn1c2c(c3cc(S(=O)(=O)c4ccc5occc5c4)ccc31)C1CCC(C2)N1` (stereo not shown) [Example 116]: the Ki was 20 nM.
On to `COc1cc(S(=O)(=O)n2ccc3ccccc32)cc2c3c(n(C)c12)CC1CCC3N1` (stereo not shown) [Example 241], for which the Ki was determined as 0.35 nM.
In the case of `COc1cc(S(=O)(=O)c2cccc(OCc3ccccc3)c2)cc2c3c(n(C)c12)CC1CCC3N1` (stereo not shown) [Example 147], the Ki worked out at 1.4 nM.
On to `Cn1c2c(c3cc(S(=O)(=O)c4cccc(-c5cc[nH]n5)c4)ccc31)C1CCC(C2)N1` (stereo not shown) [Example 125], for which the inhibition constant Ki was found to be 244 nM.
Consider `COCCN1C2CCC1c1c(n(C)c3ccc(S(=O)(=O)c4ccc5[nH]ccc5c4)cc13)C2` (stereo not shown) [Example 136], for which the Ki was 1.4 nM.
Still for that read-out and setting: the same measure for `Cn1c2c(c3cc(S(=O)(=O)c4cccc(OCc5ccccc5)c4)ccc31)C1CCC(C2)N1` (stereo not shown) [Example 121]: 1.9 nM.
As to `CN1C2CCC1c1c(n(C)c3ccc(S(=O)(=O)c4ccc5[nH]ccc5c4)cc13)C2` (stereo not shown) [Example 184], the Ki turned out to be 0.35 nM.
On the same count and under the same terms, the same measure for `Cn1c2c(c3cc(S(=O)(=O)n4ccc5cc(Cl)ccc54)ccc31)C1CCC(C2)N1` (stereo not shown) [Example 196]: 1.2 nM.
With `Cn1c2c(c3cc(S(=O)(=O)n4ccc5ncccc54)ccc31)C1CCC(C2)N1` (stereo not shown) [Example 107], the inhibition constant (Ki) is 78 nM.
Same read-out and setting: the same measure for `COc1cc(S(=O)(=O)c2cccc(OC(F)F)c2)cc2c3c(n(C)c12)CC1CCC3N1` (stereo not shown) [Example 214]: 3 nM; for `CC(C)N1C2CCC1c1c(n(C)c3ccc(S(=O)(=O)c4ccc5[nH]ccc5c4)cc13)C2` (stereo not shown) [Example 135]: 3.2 nM; for `Cn1c2c(c3cc(S(=O)(=O)c4cccc5cnccc45)ccc31)C1CCC(C2)N1` (stereo not shown) [Example 111]: 22 nM.
As to `COc1cc(S(=O)(=O)c2cn(C)c3ccccc23)cc2c3c(n(C)c12)CC1CCC3N1` (stereo not shown) [Example 223], the Ki stood at 2.4 nM.
As for `CN(C)Cc1ccc(S(=O)(=O)c2ccc3c(c2)c2c(n3C)CC3CCC2N3)cc1` (stereo not shown) [Example 34, 2-[4-(N,N-Dimethylaminomethyl)phenyl]sulfonyl-5-methyl-5,6,7,8,9,10-hexahydro-7,10-epiminocyclohepta[b]indole dihydrochloride], the inhibition constant (Ki) came to 4.8 nM.
Take `CCOc1cc(S(=O)(=O)c2ccccc2)cc2c3c(n(C)c12)CC1CCC3N1` (stereo not shown) [Example 234]: the Ki was 4.9 nM.
In the case of `Cn1c2c(c3cc(S(=O)(=O)c4ccc5sccc5c4)ccc31)C1CCC(C2)N1` (stereo not shown) [Example 104], the Ki came out at 5 nM.
Same read-out and setting: the same measure for `COc1cc(S(=O)(=O)n2ncc3ccccc32)cc2c3c(n(C)c12)CC1CCC3N1` (stereo not shown) [Example 148]: 1.3 nM; for `Cn1c2c(c3cc(S(=O)(=O)c4cc(F)c5[nH]ccc5c4)ccc31)C1CCC(C2)N1` (stereo not shown) [Example 124]: 0.33 nM.
For the compound `Cn1c2c(c3cc(S(=O)(=O)c4cnc5[nH]ccc5c4)ccc31)C1CCC(C2)N1` (stereo not shown) [Example 101], the Ki amounted to 2.9 nM.
The same measure, in the same setting: for `Cn1c2c(c3cc(S(=O)(=O)c4ccc(CN)cc4)ccc31)C1CCC(C2)N1` (stereo not shown) [Example 33, 2-(4-Aminomethylphenyl)sulfonyl-5-methyl-5,6,7,8,9,10-hexahydro-7,10-epiminocyclohepta[b]indole dihydrochloride] the value was 15 nM.
On to `Cn1c2c(c3cc(S(=O)(=O)c4cccc5cccnc45)ccc31)C1CCC(C2)N1` (stereo not shown) [Example 113], for which the Ki was 23 nM.
For `Cn1c2c(c3cc(S(=O)(=O)c4ccc5[nH]ccc5c4)ccc31)C1CCC(C2)N1CCO` (stereo not shown) [Example 138], the Ki worked out at 1.2 nM.
Turning to `Cn1c2c(c3cc(S(=O)(=O)c4cc(C(F)(F)F)c5[nH]ccc5c4)ccc31)C1CCC(C2)N1` (stereo not shown) [Example 123], the Ki turned out to be 0.47 nM.
The same measure, in the same setting: for `Cn1c2c(c3cc(S(=O)(=O)c4ccc5c(ccn5CCO)c4)ccc31)C1CCC(C2)N1` (stereo not shown) [Example 119] the value was 228 nM; for `Cn1c2c(c3cc(S(=O)(=O)c4cccc(Cl)c4)ccc31)C1CCC(C2)N1` (stereo not shown) [Example 157], 2.7 nM.
The same measure, in the same setting: for `Cn1c2c(c3cc(S(=O)(=O)n4ccc5c(F)cccc54)ccc31)C1CCC(C2)N1` (stereo not shown) [Example 64, 2-[1-(4-Fluoro)-indole]sulfonyl-5-methyl-5,6,7,8,9,10-hexahydro-7,10-epiminocyclohepta[b]indole hydrochloride] the value was 5.6 nM; for `Cn1c2c(c3cc(S(=O)(=O)c4ccccc4F)cc(O)c31)C1CCC(C2)N1` (stereo not shown) [Example 211], 1.6 nM.

The data set is the same for the next values; noted with them: read-out: human 5HT6 Ki; human 5-HT6 receptor membranes, 10 nM [3H]-LSD; hydrochloride.
`Cn1c2c(c3cc(S(=O)(=O)c4cccc(Cl)c4)ccc31)C1CCC(C2)N1` (stereo not shown) [Example 36, 2-(3-Chlorophenyl)sulfonyl-5-methyl-5,6,7,8,9,10-hexahydro-7,10-epiminocyclohepta[b]indole hydrochloride]: the Ki was 1.8 nM.

System in another data set: not given
Assay: not given
Conditions: not given
One may read the melting point as the temperature, or range, at which the solid turns liquid. As for `CN(C)c1cccc(S(=O)(=O)c2ccc3c(c2)c2c(n3C)CC3CCC2N3)c1.Cl` (stereo not shown) [Example 45, 2-[(3-N,N-Dimethylamino)phenyl]sulfonyl-5-methyl-5,6,7,8,9,10-hexahydro-7,10-epiminocyclohepta[b]indole hydrochloride], the melting point is 204 to 208 °C (dec.).
In the case of `Cl.Cn1c2c(c3cc(S(=O)(=O)c4ccc(C(F)(F)F)cc4)ccc31)C1CCC(C2)N1` (stereo not shown) [Example 29, 2-(4-Trifluoromethylphenyl)sulfonyl-5-methyl-5,6,7,8,9,10-hexahydro-7,10-epiminocyclohepta[b]indole hydrochloride], the melting point lay in the range of 200 to 205 °C.
Compound `Cl.Cn1c2c(c3cc(S(=O)(=O)c4cccc(OC(F)(F)F)c4)ccc31)C1CCC(C2)N1` (stereo not shown) [Example 39, 2-(3-Trifluoromethoxyphenyl)sulfonyl-5-methyl-5,6,7,8,9,10-hexahydro-7,10-epiminocyclohepta[b]indole hydrochloride] came in with a melting point of 193 to 196 °C.
Consider `CN(C)Cc1ccc(S(=O)(=O)c2ccc3c(c2)c2c(n3C)CC3CCC2N3)cc1` (stereo not shown) (as salt: hydrochloride) [Example 34, 2-[4-(N,N-Dimethylaminomethyl)phenyl]sulfonyl-5-methyl-5,6,7,8,9,10-hexahydro-7,10-epiminocyclohepta[b]indole dihydrochloride], for which the melting point is 244 to 246 °C.
`Cl.Cn1c2c(c3cc(S(=O)(=O)c4cccc(NC5CCCC5)c4)ccc31)C1CCC(C2)N1` (stereo not shown) [Example 48, 2-[(3-N-Cyclopentylamino)phenyl]sulfonyl-5-methyl-5,6,7,8,9,10-hexahydro-7,10-epiminocyclohepta[b]indole hydrochloride]: the melting point was in the range of 211 to 217 °C.
On to `Cl.Cn1c2c(c3cc(S(=O)(=O)c4ccccc4)ccc31)C1CCC(C2)N1` (stereo not shown) [Example 27, 2-Phenylsulfonyl-5-methyl-5,6,7,8,9,10-hexahydro-7,10-epiminocyclohepta[b]indole hydrochloride], for which the melting point was 238 to 244 °C (dec.).
As for `COc1cc(S(=O)(=O)c2ccccc2)cc2c3c(n(C)c12)CC1CCC3N1.Cl` (stereo not shown) [Example 83, 2-Phenylsulfonyl-4-methoxy-5-methyl-5,6,7,8,9,10-hexahydro-7,10-epiminocyclohepta[b]indole hydrochloride], the melting point lay within 175 to 177 °C.
`COc1ccc2c(ccn2S(=O)(=O)c2ccc3c(c2)c2c(n3C)CC3CCC2N3)c1.Cl` (stereo not shown) [Example 66, 2-[1-(5-Methoxy)-indole]sulfonyl-5-methyl-5,6,7,8,9,10-hexahydro-7,10-epiminocyclohepta[b]indole hydrochloride] showed a melting point of 206 to 209 °C.
`Cc1cc(S(=O)(=O)c2cccc(Cl)c2)cc2c3c(n(C)c12)CC1CCC3N1.Cl` (stereo not shown) [Example 73, 2-(3-Chloro-phenyl)sulfonyl-4,5-dimethyl-5,6,7,8,9,10-hexahydro-7,10-epiminocyclohepta[b]indole hydrochloride] registered a melting point of 227 to 229 °C.
For `Cl.Cn1c2c(c3cc(S(=O)(=O)c4ccc(N)cc4)ccc31)C1CCC(C2)N1` (stereo not shown) [Example 53, 2-(4-Aminophenyl)sulfonyl-5-methyl-5,6,7,8,9,10-hexahydro-7,10-epiminocyclohepta[b]indole hydrochloride], the melting point is 220 to 225 °C.
With `Cl.Cn1c2c(c3cc(S(=O)(=O)c4ccc5ccccc5c4)ccc31)C1CCC(C2)N1` (stereo not shown) [Example 50, 2-(2-Napthyl)sulfonyl-5-methyl-5,6,7,8,9,10-hexahydro-7,10-epiminocyclohepta[b]indole hydrochloride], the melting point was in the range of 220 to 222 °C.
Still for that read-out and setting: for `Cl.Cn1c2c(c3cc(S(=O)(=O)c4cccc(-c5ccccc5)c4)ccc31)C1CCC(C2)N1` (stereo not shown) [Example 57, 2-[(3-Phenyl)-phenyl]sulfonyl-5-methyl-5,6,7,8,9,10-hexahydro-7,10-epiminocyclohepta[b]indole hydrochloride] the value was 230 to 235 °C (dec.).
On to `CC(C)Oc1cc(S(=O)(=O)c2ccccc2)cc2c3c(n(C)c12)CC1CCC3N1.Cl` (stereo not shown) [Example 85, 2-Phenylsulfonyl-4-isopropoxy-5-methyl-5,6,7,8,9,10-hexahydro-7,10-epiminocyclohepta[b]indole hydrochloride], for which the melting point is 187 to 189 °C.
In turn, `Cc1cc(S(=O)(=O)c2cccc(F)c2)cc2c3c(n(C)c12)CC1CCC3N1.Cl` (stereo not shown) [Example 72, 2-(3-Fluorophenyl)sulfonyl-4,5-dimethyl-5,6,7,8,9,10-hexahydro-7,10-epiminocyclohepta[b]indole hydrochloride] gave a melting point of 254 to 256 °C.
Same read-out and setting: for `Cl.Cn1c2c(c3cc(S(=O)(=O)c4cccc(C#N)c4)ccc31)C1CCC(C2)N1` (stereo not shown) [Example 43, 2-(3-Cyanophenyl)sulfonyl-5-methyl-5,6,7,8,9,10-hexahydro-7,10-epiminocyclohepta[b]indole hydrochloride] the value was 211 to 214 °C.
